Structures can show the parent of a compound that is named as a salt. Where two headings read alike, the source gives them in different places.
Columns and labels:
[1] = molecular target: WDR5 protein (22-334aa) with MLL1 polypeptide (3672-3773aa) (Homo sapiens, UniProt P61964); experiment: WDR5-MLL PPI inhibitory activity test (HTRF); format: binding; details: His-tagged WDR5 and biotin-tagged MLL1 polypeptide
Description: Test Example 1: WDR5-MLL PPI Inhibitory Activity Test
Effect of the compounds on WDR5 (WD Repeat Domain 5) and MLL1 (mixed-lineage leukemia 1) peptides at molecular level.
The effect of the compound on the interaction of WDR5 protein (22-334aa) with MLL1 polypeptide (3672-3773aa) was detected by HTRF (Homogeneous Time-Resolved Fluorescence) technology. When the N-terminal His-tagged WDR5 recognized by the Anti-6His-Eu cryptate donor interacts with the biotin-tagged MLL1 polypeptide recognized by the streptavidin-APC receptor, the donor and acceptor are pulled close enough to produce fluorescence resonance energy transfer (FRET). […] Therefore, the decrease in FRET signal can reflect the compound's inhibition on the interaction of WDR5 with MLL1 polypeptide.
The compound to be tested was diluted 3-fold with DMSO. […] Then the compound was diluted with reaction buffer (25 mM HEPES pH=7.5, 100 mM NaCl, 0.05% Tween 20) to control the final concentration of DMSO at 0.5%. In a 384-well plate, 1 μL of compound and 3 μL of 42 nM WDR5 protein were added, centrifuged at 1000 rpm for 1 min, incubated at room temperature for 60 min, followed by adding 3 μL of 333 nM MLL1 polypeptide with incubation at room temperature for 10 min, and followed by adding 3 μL of a mixed liquid of Anti-6His-Eu cryptate and streptavidin-APC with centrifugation at 1000 rpm for 1 mi and incubation at room temperature protected from light for 60 min, using a multifunction microplate reader (EnVision®2105) to read the signal. The following controls were set up per plate: control group (1 μL with 5% DMSO reaction buffer, 3 μL of 42 nM WDR5, 3 μL of MLL1 polypeptide, 3 μL of Anti-6His-Eu cryptate and streptavidin-APC). Blank group (1 μL reaction buffer with 5% DMSO, 3 μL reaction buffer, 3 μL MLL1 polypeptide, 3 μL Anti-6His-Eu cryptate and streptavidin-APC). The test data was calculated according to the signal ratio of two beams of fluorescence at different wavelengths: (665 nm signal/620 nm signal)*10000. […] The IC50 value was calculated using XLfit software.

MV4-11 cells = experiment: MV4-11 cell proliferation inhibition experiment (CellTiter-Glo); format: cell-based; details: 6 days, read-out: cell proliferation inhibitory activity
Protocol: Test Example 2: MV4-11 Cell (ATCC: CRL-9591) Proliferation Inhibition Experiment
ATP in living cells was quantitatively detected by CellTiter-Glo (Promega-G7573) Luminescence Cell Viability Assay Kit to determine the effect of the compounds to be tested on cell proliferation. • Step 1: MV4-11 cells were seeded in 96-well plates (Greiner-655098) at a density of 1,500 cells per well with a volume of 140 μL per well; Cell culture medium components included RPM11640 (Gibco-A10491-01)+10% FBS (Gibco-10099-141C)+1% Penicillin-Streptomycin (5,000 U/mL, Gibco-15070-063). • Step 2: On the day of cell seeding, the cells were treated with the compound to be tested. The compound to be tested was diluted with a 3-fold gradient, and a total of 9 concentration gradients were set. DMSO (Sigma, D2650) with 0.5% final concentration or a DMSO solution containing the compound to be tested was added per well with 2 or 3 replicate wells at each concentration point. The plates were incubated at 37° C. in a 5% CO2 incubator (Thermo Scientific Steri-Cycle 371) for 6 days. • Step 3: The cell viability in the control and treatment groups was detected with CellTiter-Glo Luminescent Cell Viability Assay Kit. 50 μL of CellTiter-Glo was added per well, mixed well, and incubated for 15 min at room temperature protected from light. According to the kit instructions, the chemiluminescence signal was read using a multifunctional microplate reader (EnVision, PerkinElmer).
The inhibition percentage (%) of the compound at each concentration point was calculated by the following formula:
Inhibition Percentage (%)=(1−signal value of the group treated with the compound/signal value of the group treated with DMSO)*100.
The value of cell proliferation semi-inhibitory concentration IC50 was calculated using GraphPad Prism software, and the results are shown in Table 2.

SMILES | IC50 [1] [nM] | IC50 (MV4-11 cells; Homo sapiens, 144 h) [nM] | IC50 (MV4-11 cells) [nM]
CCOc1cc(C(C)N2CC3(CC3(F)F)c3c(CN(C)C)cc(Cn4ccnc4NC)cc3C2=O)ncc1F (single isomer, unassigned) [Compound 88] | < 20 | < 50 | 
CCOc1cc(C(C)N2CC3(CC3(F)F)c3c(CN(C)C)cc(Cn4ccnc4NC)cc3C2=O)ncc1F (single isomer, unassigned) [Compound 89] | < 20 |  | < 50
CCOc1cc([C@H](C)N2C[C@@]3(CC3(F)F)c3c(CN4CCN(C)CC4)cc(Cn4ccnc4NC)cc3C2=O)ncc1F (single isomer, unassigned) [Compound 92, 2′-(-1-(4-ethoxy-5-fluoropyridine-2-yl)ethyl)-2,2-difluoro-7′-((2-(methylamino)-1H-imidazol-1-yl)methyl)-5′-((4-methylpiperazin-1-yl)methyl)-2′,3′-dihydro-1′H-spiro[cyclopropan-1,4′-isoquinoline]-1′-one formate salt] | < 20 | 50 to 200 | 
CCOc1cc([C@@H](C)N2C[C@@]3(CC3(F)F)c3c(CN4CCN(C)CC4)cc(Cn4ccnc4NC)cc3C2=O)ncc1F (stereo in doubt) [Compound 93, 2′-(-1-(4-ethoxy-5-fluoropyridine-2-yl)ethyl)-2,2-difluoro-7′-((2-(methylamino)-1H-imidazol-1-yl)methyl)-5′-((4-methylpiperazin-1-yl)methyl)-2′,3′-dihydro-1′H-spiro[cyclopropan-1,4′-isoquinoline]-1′-one formate salt] | < 20 | < 50 | 
CCOc1cc([C@H](C)N2CC3(CC3(F)F)c3c(CN(C)C)cc(Cn4ccnc4NC)cc3C2=O)ncc1C#N (stereo in doubt) [Compound 95, 6-(-1-(5′-((dimethylamino)methyl)-2,2-difluoro-7′-((2-(methylamino)-1H-imidazol-1-yl)methyl)-1′-one-1′H-spiro[cyclopropan-1,4′-isoquinoline]-2′(3′H)-yl)ethyl)-4-ethoxynicotinonitrileformate salt] | < 20 | < 50 | 
CCOc1cc([C@@H](C)N2C[C@]3(CC3(F)F)c3c(CN(C)C)cc(Cn4ccnc4NC)cc3C2=O)ncc1F (stereo in doubt) [Compound 96, (S)-5′-((dimethylamino)methyl)-2′-((R)-1-(4-ethoxy-5-fluoropyridine-2-yl)ethyl)-2,2-difluoro-7′-((2-(methylamino)-1H imidazol-1-yl)methyl)-2′, 3′-dihydro-1′H-spiro[cyclopropan-1,4′-isoquinoline]-1′-one] | < 20 | < 50 | 
CNc1nccn1Cc1cc(CN(C)C)c2c(c1)C(=O)N([C@@H](C)c1cc(OC)c(C#N)cn1)CC21CC1 [Compound 2] | < 20 | 50 to 200 | 
CCOc1cc([C@H](C)N2CC3(CC3)c3c(CN(C)C)cc(Cn4ccnc4NC)cc3C2=O)ncc1C#N [Compound 3] | < 20 | < 50 | 
CNc1nccn1Cc1cc(CN(C)C)c2c(c1)C(=O)N([C@@H](C)c1cnc(F)c(OC)c1)CC21CC1 [Compound 4] | < 20 | < 50 | 
CNc1nccn1Cc1cc(CN(C)C)c2c(c1)C(=O)N([C@@H](C)c1cc(OC)c(F)cn1)CC21CC1 [Compound 5] | < 20 | < 50 | 
CCOc1cc([C@H](C)N2CC3(CC3)c3c(CN4CCOCC4)cc(Cn4ccnc4NC)cc3C2=O)ncc1F [Compound 8] | < 20 | 50 to 200 | 
CCOc1cc([C@H](C)N2CC3(CC3)c3c(CN(CC)CC)cc(Cn4ccnc4NC)cc3C2=O)ncc1F [Compound 10, (S)-5′-(diethylamino)methyl)-2′-(1-(4-ethoxy-5-fluoropyridine-2-ylethyl)-7′-((2-(methylamino)-1H-imidazol-1-yl)methyl)-2′,3′-dihydro-1′H-spiro[cyclopropan-1,4′-isoquinoline]-1′-one] | < 20 | 50 to 200 | 
CNc1nccn1Cc1cc(CN(C)C)c2c(c1)C(=O)N([C@@H](C)c1cc(OC3CC3)c(F)cn1)CC21CC1 [Compound 14] | < 20 | 50 to 200 | 
CCOc1cc([C@H](C)N2CC3(CCC3)c3c(CN(C)C)cc(Cn4ccnc4NC)cc3C2=O)ncc1F [Compound 18, (S)-5′-((dimethylamino)methyl)-2′-(1-(4-ethoxy-5-fluoropyridine-2-yl)ethyl)-7′-((2-(methylamino)-1H-imidazol-1-yl)methyl)-2′,3′-dihydro-1′H-spiro[cyclobutan-1,4′-isoquinoline]-1′-one] | < 20 | 50 to 200 | 
CCOc1cc([C@H](C)N2CC3(CCCC3)c3c(CN(C)C)cc(Cn4ccnc4NC)cc3C2=O)ncc1F [Compound 19, (S)-5′-((dimethylamino)methyl)-2′-(1-(4-ethoxy-5-fluoropyridine-2-yl)ethyl)-7′-((2-(methylamino)-1H-imidazol-1-yl)methyl)-2′,3′-dihydro-1′H-spiro[cyclopentan-1,4′-isoquinoline]-1′-one] | < 20 | < 50 | 
CCOc1cc([C@H](C)N2CC3(CC3)c3c(CN4CCN(C)CC4)cc(Cn4ccnc4NC)cc3C2=O)ncc1F [Compound 37] | < 20 | < 50 | 
CCOc1cc(C(C)N2CC3(CC3)c3c(CN(C)CC(F)(F)F)cc(Cn4ccnc4NC)cc3C2=O)ncc1F (stereo not shown) [Compound 41, 2′-(1-(4-ethoxy-5-fluoropyridine-2-yl)ethyl)-5′-((methyl(2,2,2-trifluoroethyl)amino)methyl)-7′-((2-(methylamino)-1H-imidazol-1-yl)methyl)-2′,3′-dihydro-1′H-spiro[cyclopropan-1,4′-isoquinoline]-1′-one] | 20 to 100 | 50 to 200 | 
CNc1nccn1Cc1cc(CN(C)C)c2c(c1)C(=O)N([C@@H](C)c1cc(OC(F)F)c(F)cn1)CC21CC1 [Compound 55] | < 20 | 50 to 200 | 
CCOc1cc([C@H](C)N2CC3(CC3)c3c(CN4CCN(CC)CC4)cc(Cn4ccnc4NC)cc3C2=O)ncc1F [Compound 57] | < 20 | < 50 | 
CCOc1cc([C@H](C)N2CC3(CC3)c3c(CN4CCOCC4)cc(Cn4ccnc4NC)cc3C2=O)ncc1C#N [Compound 59] | < 20 | < 50 | 
CNc1nccn1Cc1cc(CN2CC(F)(F)C2)c2c(c1)C(=O)N([C@@H](C)c1cc(OC)c(C#N)cn1)CC21CC1 [Compound 61] | < 20 | 50 to 200 | 
CCOc1cc([C@H](C)N2CC3(CC3)c3c(CN4CCN(CC(F)(F)F)CC4)cc(Cn4ccnc4NC)cc3C2=O)ncc1C#N [Compound 63, (S)-4-ethoxy-6-(1-(7′-((2-(methylamino)-1H-imidazol-1-yl)methyl)-1′-one-5′-((4-(2,2,2-trifluoroethyl)piperazin-1-yl)methyl)-1′H-spiro[cyclopropan-1,4′-isoquinoline]-2′(3′H)-yl)ethyl)nicotinonitrile] | < 20 | 50 to 200 | 
CCOc1cc([C@H](C)N2CC3(CC3)c3c(CN4CCN(C5CC5)CC4)cc(Cn4ccnc4NC)cc3C2=O)ncc1F [Compound 64, (S)-5′-((4-cyclopropylpiperazin-1-yl)methyl)-2′-(1-(4-ethoxy-5-fluoropyridine-2-yl)ethyl)-7′-((2-(methylamino)-1H-imidazol-1-yl)methyl)-2′,3′-dihydro-1′H-spiro[cyclopropan-1,4′-isoquinoline]-1′-one] | < 20 | 50 to 200 | 
